From patent US11246896B2, “Tumor-specific adenovirus vectors and therapeutic uses” (priority 2015, dated 2022) come the findings set out here.

The subject of this series is RIN, MIN, β-TC1 (INSM1+ insulinomas). Nature of the series: Cell survival assay (MTS), INSM1-positive insulinoma cells. It is filed as cell-based, rat, mouse. Particulars: 200 μM GCV, no virus, RTC-1 cells. Here is the method: FIGS. 13A-13D illustrate that the oncolytic virus in combination with Ad-INSM1p-HSV-tk increased efficacy of tumor cell killing. An MTS colorimetric assay was conducted to measure the cell survival with 3 insulinoma cell lines: RIN, MIN, β-TC1 (INSM1^+ insulinomas), and Panc-1 (INSM1^− pancreatic epithelioid carcinoma).
FIG. 13D is a graph illustrating cells treated with a combination of Ad-IMSM1p-HSV-tk and Ad-INSM1p-E1A-HSV-tk viruses. Cells were first treated with virus ranging from 0-100 MOI. […] Cell survival was measured by MTS colorimetric analysis at 490 nm. (n=6). […]
FIG. 14D is a graph illustrating cells treated with a combination of Ad-IMSM1p-HSV-tk and Ad-INSM1p-E1A-HSV-tk viruses. […] Cell survival was measured by MTS colorimetric analysis at 490 nm. […]
Cell survival assay. […] Afterwards, cell survival was assessed using […] 96® AQueous One Solution Cell Proliferation Assay (Promega, cat. no. G3582) and read at 490 nm on a Bio-Tek Synergy-HT Microplate Reader. Results were plotted as relative absorbance (relative to control sample with no virus) against increasing viral MOI. Samples were conducted in six wells each and statistical significance was determined using the students T-test with a threshold of p<0.05.
For a second experiment, the same viral constructs were used to infect cancer cells at a constant 50 MOI. […] After the treatment period, cell survival was assessed using […] […]

SMILES strings stand for the structures.

For `Nc1nc(O)c2ncn(COC(CO)CO)c2n1` [GCV, 2-amino-9-{[(1,3-dihydroxypropan-2-yl)oxy]methyl}-6,9-dihydro-3H-purin-6-one], the “cell survival with GCV in the absence of adenovirus” value is recorded as “decrease in survival”.
